Measured values as given in US20260242478A1, “ANTIBODIES FOR TARGETING PSMA AND CD28 AND USES THEREOF” (Janux Therapeutics, Inc., priority 2023, published 2026).
Where no end group is shown, it is not given here.

Tests used:
PSMA Fab = test: Phage binding ELISA, PSMA Fab, with or without PSMA antigen (peptide-179 and peptide-180 libraries); conditions: peptide-180 library clonal phage; background (no Fab)
Protocol: (§1) Once the phage optimization libraries were completed, phage libraries were bio-panned using PSMA Fab loaded beads. Multiple rounds of panning were performed where bacteriophage was allowed to bind to PSMA Fab loaded beads. washed. eluted, and amplified. After panning, phage infected bacteria were plated out and colonies picked into 96 well blocks. Clonal phage was then amplified and separated from bacterial cells via centrifugation. Phage containing supemnatants were tested in binding ELISAs against PSMA Fab coated plates in the presence or absence of saturating concentrations of PSMA antigen. Phage able to bind PSMA Fab were selected for sequence analysis if the binding signal was reduced in the presence of PSMA.
Clonal phage were harvested as crude supernatants and screened via standard ELISAs. Briefly, biotinylated PSMA Fab was captured on neutravidin coated plates. Prior to the addition of clonal phage. wells were incubated with blocking buffer and PSMA antigen or blocking buffer alone. Without washing or aspirating, clonal phage supernatants were then added to the wells and incubated for a short time. Wells were then washed followed by detection of bound phage using a horse radish conjugated anti-M13 antibody. Clonal phage of interest were then sent for sequence analysis.
as §1, with “beads, washed,” for “beads. washed.”, “supernatants” for “supemnatants”

anti-CD28 scFv = test: Panning ELISA of clonal phage, anti-CD28 scFv, with or without CD28 soluble protein (Peptide-9 library); format: binding; conditions: background (no anti-CD28 scFv)
Outline: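 Wells pre-incubated with blocking buffer plus CD28 soluble protein or blocking buffer alone, then crude clonal phage supernatants added without washing for a short incubation. After washing, bound phage detected with HRP-conjugated anti-M13 antibody.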

Chain of PSMA Fab (as listed by the source): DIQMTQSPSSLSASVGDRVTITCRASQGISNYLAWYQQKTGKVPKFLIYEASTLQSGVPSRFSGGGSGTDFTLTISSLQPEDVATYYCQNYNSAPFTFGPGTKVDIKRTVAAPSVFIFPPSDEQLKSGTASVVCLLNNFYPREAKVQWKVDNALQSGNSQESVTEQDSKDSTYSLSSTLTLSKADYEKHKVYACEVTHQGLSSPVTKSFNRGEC
Chain of PSMA Fab (as listed by the source): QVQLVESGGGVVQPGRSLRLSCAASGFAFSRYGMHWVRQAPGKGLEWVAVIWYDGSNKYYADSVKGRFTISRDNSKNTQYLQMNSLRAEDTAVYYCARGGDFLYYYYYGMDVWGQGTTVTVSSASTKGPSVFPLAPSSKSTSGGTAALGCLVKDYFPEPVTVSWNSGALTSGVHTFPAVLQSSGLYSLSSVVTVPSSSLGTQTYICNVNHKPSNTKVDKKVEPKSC
Chain of anti-CD28 scFv (as listed by the source): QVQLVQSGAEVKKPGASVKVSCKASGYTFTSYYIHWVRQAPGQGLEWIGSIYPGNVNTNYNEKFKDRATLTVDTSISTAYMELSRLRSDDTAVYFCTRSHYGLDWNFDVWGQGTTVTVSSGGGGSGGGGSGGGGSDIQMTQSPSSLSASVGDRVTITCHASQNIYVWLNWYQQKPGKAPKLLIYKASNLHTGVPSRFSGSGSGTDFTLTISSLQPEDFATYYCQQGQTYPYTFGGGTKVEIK

With “Phage-2853 (MLPLCVPAWMCSGF; not fully specified; cysteine pairing not given here)” the “Phage binding ELISA Background signal” value (PSMA Fab) was 0.061.
In the case of “Phage-2851 (DMRLCVPEWMCLGL; not fully specified; cysteine pairing not given here)”, the “Phage binding ELISA Background signal” value (PSMA Fab) is reported as 0.0889.
For “Phage-2856 (VQRMCEPSWMCFGF; not fully specified; cysteine pairing not given here)”, the “Phage binding ELISA Background signal” value (PSMA Fab) was 0.0631.
“Phage-2854 (VHIMCKPAWMCLGF; not fully specified; cysteine pairing not given here)” was tested, and the “Phage binding ELISA Background signal” value (PSMA Fab) was 0.0917.
With Phage-2793 (VTNWCTPPWMCEML) the “Phage binding ELISA Background signal” value (PSMA Fab) was 0.0676.
With “Phage-2844 (VVAMCKPAWMCAGL; not fully specified; cysteine pairing not given here)” the “Phage binding ELISA Background signal” value (PSMA Fab) was 0.0591.
For “Phage-2835 (VAKLCTPAWMCSAM; not fully specified; cysteine pairing not given here)”, the “Phage binding ELISA Background signal” value (PSMA Fab) was 0.0643.
In the case of “Phage-2860 (EWILCKPAWMCDGL; not fully specified; cysteine pairing not given here)”, the “Phage binding ELISA Background signal” value (PSMA Fab) is reported as 0.051.
Phage-2801 (SDNWCKPEWMCVGH) was tested, and the “Phage binding ELISA Background signal” value (PSMA Fab) was 0.0738.
“Phage-2862 (TGAYCVPQWMCSGF; not fully specified; cysteine pairing not given here)” was tested, and the “Phage binding ELISA Background signal” value (PSMA Fab) was 0.0638.
With “Phage-2847 (WMPRCVPEWMCAGF; not fully specified; cysteine pairing not given here)” the “Phage binding ELISA Background signal” value (PSMA Fab) was 0.1667.
With Phage-2799 (ESKWCVPTWMCAEN) the “Phage binding ELISA Background signal” value (PSMA Fab) was 0.0516.
With Phage-2798 (HFKWCIPPWMCLEI) the “Phage binding ELISA Background signal” value (PSMA Fab) was 0.0798.
For Phage-2788 (SVKWCTPSWMCTEW), the “Phage binding ELISA Background signal” value (PSMA Fab) was 0.0817.
“Phage-2843 (MLPICKPDWMCAGF; not fully specified; cysteine pairing not given here)” was tested, and the “Phage binding ELISA Background signal” value (PSMA Fab) was 0.0724.
For Phage-2792 (TQHWCTPIWMCEGL), the “Phage binding ELISA Background signal” value (PSMA Fab) was 0.0865.
For Phage-2869 (WPQLCVPMWMCAGL), the “Phage binding ELISA Background signal” value (PSMA Fab) was 0.1456.
For Phage-2815 (IDKWCVPAWMCSPA), the “Phage binding ELISA Background signal” value (PSMA Fab) was 0.0608.
“Phage-46 (MHWCPIDLWAECYA; not fully specified; cysteine pairing not given here)” was tested, and the Background signal (anti-CD28 scFv; Peptide-9 library) was 0.082.
For “Phage-276 (IDWCPKIHWDLCYF; not fully specified; cysteine pairing not given here)”, the Background signal (anti-CD28 scFv) was 0.072.
Phage-338 (MDWCPRFLWNECFY) showed a Background signal (anti-CD28 scFv) of 0.143.
With Phage-407 (MNWCPIHMWNQCFA) the Background signal (anti-CD28 scFv; Peptide-9 library) was 0.085.
In the case of Phage-133 (MDWCPRFLWDECFF), the Background signal (anti-CD28 scFv; Peptide-9 library) is reported as 0.064.
In the case of Phage-326 (MFWCPITLWNECFN), the Background signal (anti-CD28 scFv) is reported as 0.075.
With Phage-415 (MDWCPMYMWHKCFH) the Background signal (anti-CD28 scFv; Peptide-9 library) was 0.099.
Substance Phage-123 (MDWCPIHLWNECFA) has a Background signal (anti-CD28 scFv; Peptide-9 library) of 0.104.
Substance Phage-109 (MDWCPKNLWHVCFN) has a Background signal (anti-CD28 scFv; Peptide-9 library) of 0.081.
Substance Phage-339 (MDWCPRTLWDQCFF) has a Background signal (anti-CD28 scFv) of 0.088.
With Phage-378 (MHWCPLHLWNECFA) the Background signal (anti-CD28 scFv) was 0.065.
For Phage-418 (MYWCPKYMWSECFA), the Background signal (anti-CD28 scFv; Peptide-9 library) was 0.072.
Phage-374 (MAWCPLDLWDKCFY) was tested, and the Background signal (anti-CD28 scFv) was 0.079.
“Phage-65 (MDWCPMYLWNECFN; left off: large carriers)” was tested, and the Background signal (anti-CD28 scFv; Peptide-9 library) was 0.064.
